Results reported in US7943621B2, “Salts of piperazine compounds as D3/D2 antagonists” (Richter Gedeon Nyrt., priority 2008, dated 2011).
Structures can show the parent of a compound that is named as a salt.

Legend:
[1] = stability when stored in the solid state (long term and accelerated); assay type: physicochemical
[2] = thermal stability by thermogravimetric (TG) and DSC analysis; assay type: physicochemical; conditions: solvent-free anhydrous form, 10° C./min, N2
Procedure: The characterization of trans 4-{2-[4-(2,3-dichlorophenyl)-piperazine-1-yl]-ethyl}-N,N-dimethylcarbamoyl-cyclohexylamine monohydrochloride was carried out by thermogravimetric (TG), differential scanning […] (DSC), infrared spectroscopic (FT-IR), Raman spectroscopic (FT-Raman) and powder X-ray diffraction (PXRD) solid phase analytical methods.

long term stability ([1]; 25±2° C./60±5% RH): 48 months | accelerated stability ([1]; 40±2° C./75±5% RH): 6 months | satisfactory thermal stability up to [2]: about 200 °C
Structure (SMILES): CN(C)C(=O)NC1CCC(CCN2CCN(c3cccc(Cl)c3Cl)CC2)CC1 (stereo not drawn) [monohydrochloride, Trans 4-{2-[4-(2,3-dichlorophenyl)-piperazine-1-yl]-ethyl}-N,N-dimethylcarbamoyl-cyclohexylamine monohydrochloride]
